{
  "source": "patent US7629313B2",
  "about": "“Immunomodulatory polymeric antigens for treating inflammatory pathologies” (Eli Lilly and Company, priority 2003, dated 2009)",
  "key": {"[1]": {"tested_on": "human monocyte-derived iDC", "assay": "Uptake of fluorescent polymer by iDCs, confocal microscopy", "format": "cell-based", "conditions": "two minutes incubation at 37° C.; labeled Compound 15 50 μg/ml, FITC-dextran 1 mg/ml", "procedure": "Oregon-green labeled Compound 15 is prepared as described in PCT International Publication WO 01/79242. Briefly, Oregon-green (Molecular Probes, Eugene, Oreg.)-conjugated Lipid II is included in an MtgA-polymerization reaction at a ratio of 1:4 with unlabeled Lipid 11 to produce a 25% Oregon-green labeled polymer. The polymeric material is purified and treated as previously described. For uptake studies, fluorescent Compound 15 at a final concentration of 50 μg/ml, or Lysine-fixable FITC-conjugated dextran (40 kDa size, Molecular Probes, Eugene, Oreg.) at 1 mg/ml, is incubated with human monocyte-derived iDC prepared as described in Example 5 for two minutes at 37° C. After incubation, extracellular probe is removed by washing the cells four times in ice cold complete DC medium (Example 5). Washed cells are then incubated at 37° C. and staining is stopped at two-minute intervals by washing in 1% paraformaldehyde fix diluted in flow wash solution (which also contains the metabolic poison sodium azide; protocol described in Example 5). Glass slide samples are prepared at each time interval and sealed with clear nail polish. Samples are stored at −20° C. and protected from light until analysis on a Radiance 2100 confocal microscope (BioRad Laboratories, Hercules, Calif.)."}, "[2]": {"tested_on": "human monocyte-derived dendritic cells", "assay": "Kinetics of fluorescent polymer uptake by iDCs, flow cytometry", "format": "cell-based", "conditions": "labeled Compound 15 50 μg/ml, FITC-dextran 1 mg/ml", "procedure": "In these experiments, human monocyte-derived dendritic cells are prepared as described in Example 5. Dendritic cells are resuspended at 5×10^5 cells/sample and incubated […] at 37° C. At the start of each time course, cells are incubated with either fluorescent Compound 15 at a final concentration of 50 μg/ml or Lysine-fixable FITC-conjugated dextran (40 kDa size, Molecular Probes, Eugene, Oreg.) at 1 mg/ml. At 0, 2, 10, 20, 30, 40, and 50 minutes after the start of incubation, uptake is stopped by washing the cells with four washes of ice cold flow wash buffer (Example 5). The washed cells are fixed in paraformaldehyde also as described in Example 5. Stained, fixed cells are stored at 4° C. protected from light until analysis using a FC500 flow cytometer (Beckman Coulter, Miami, Fla.). Once cells are correctly gated for forward and side scatter profiles, mean fluorescent intensity of the population is evaluated for 10,000 cells/sample. […] To control for non-specific adhesion of the molecules to the cell surface (which could be read as a positive in this assay), cells are also incubated with fluorescent polymers at 0° C. […] At this temperature, signal from neither the control molecule (FITC-dextran) nor Compound 15 increases over time (FIG. 5)."}},
  "data": [
    {"substance": "FITC-Dextran", "values": [
      {"measurement": "Intracellular localization of polymer in iDCs (confocal images)", "setting": "[1]", "result": "Localization of polymer in endocytic vacuoles"},
      {"measurement": "Uptake by DC at 0° C. (cells metabolically inactive)", "setting": "[2]", "result": "inhibited"}
    ]}
  ]
}
